Measurements reported in publication PMC8078842 (PLoS Neglected Tropical Diseases, 2021).
Counter-ions that a name gives are not always drawn. Like-named read-outs stand apart in the source and are kept apart here. Bridge positions count the residues as written; N and C are the ends. Ends that are not written are not given here.

Assays:
[1] = target: Adrenergic, Beta, Non-selective; parameters: method as in PERKIN ELMER; conditions: reference compound of the assay; ref PERKIN ELMER; cited from earlier work
[2] = target: Muscarinic, Non-selective, Central; parameters: method as in PERKIN ELMER; conditions: reference compound of the assay; ref PERKIN ELMER; cited from earlier work
[3] = target: Potassium Channel, Ca2+ Act., VI; parameters: method as in PERKIN ELMER; conditions: reference compound of the assay; ref PERKIN ELMER; cited from earlier work
[4] = target: Glutamate,NMDA,Glycine (Stry-insens Site) (Ionot); conditions: read-out: Reference Ki; reference compound of the assay; ref PERKIN ELMER; cited from earlier work
[5] = target: Cholecystokinin, CCK2 (CCKB); parameters: method as in PERKIN ELMER; conditions: reference compound of the assay; ref PERKIN ELMER; cited from earlier work
[6] = target: Glutamate, NMDA Agonist Site (Ionotropic); parameters: method as in PERKIN ELMER; conditions: reference compound of the assay; ref PERKIN ELMER; cited from earlier work
Histamine, H1 = target: Histamine, H1; parameters: method as in PERKIN ELMER; conditions: reference compound of the assay; ref PERKIN ELMER; cited from earlier work
Angiotensin II, AT2 = target: Angiotensin II, AT2; parameters: method as in PERKIN ELMER; conditions: reference compound of the assay; ref PERKIN ELMER; cited from earlier work
[7] = target: Nitric Oxide, NOS (Neuronal-Binding); parameters: method as in PERKIN ELMER; conditions: reference compound of the assay; ref PERKIN ELMER; cited from earlier work
Adenosine, Non-selective = conditions: read-out: Reference Ki; reference compound of the assay; ref PERKIN ELMER; cited from earlier work
[8] = target: Corticotropin Releasing Factor, Non-selective; parameters: method as in PERKIN ELMER; conditions: reference compound of the assay; ref PERKIN ELMER; cited from earlier work
[9] = target: Glutamate, AMPA Site (Ionotropic); parameters: method as in PERKIN ELMER; conditions: reference compound of the assay; ref PERKIN ELMER; cited from earlier work
[10] = target: Nicotinic, Neuronal (a-BnTx insensitive); parameters: method as in PERKIN ELMER; conditions: reference compound of the assay; ref PERKIN ELMER; cited from earlier work
Esterase, Acetylcholine = target: Esterase, Acetylcholine; parameters: method as in PERKIN ELMER; conditions: reference compound of the assay; ref PERKIN ELMER; cited from earlier work
[11] = target: GABA A, BDZ, alpha 1 site; conditions: read-out: Reference Ki; reference compound of the assay; ref PERKIN ELMER; cited from earlier work
[12] = target: Potassium Channel, ATP-Sensitive; parameters: method as in PERKIN ELMER; conditions: reference compound of the assay; ref PERKIN ELMER; cited from earlier work
[13] = target: T1, Oxidase, MAO-A-Peripheral (Rattus norvegicus, UniProt P21396); parameters: method as in PERKIN ELMER; conditions: reference compound of the assay; ref PERKIN ELMER; cited from earlier work
T1 sequence (P21396 1-526): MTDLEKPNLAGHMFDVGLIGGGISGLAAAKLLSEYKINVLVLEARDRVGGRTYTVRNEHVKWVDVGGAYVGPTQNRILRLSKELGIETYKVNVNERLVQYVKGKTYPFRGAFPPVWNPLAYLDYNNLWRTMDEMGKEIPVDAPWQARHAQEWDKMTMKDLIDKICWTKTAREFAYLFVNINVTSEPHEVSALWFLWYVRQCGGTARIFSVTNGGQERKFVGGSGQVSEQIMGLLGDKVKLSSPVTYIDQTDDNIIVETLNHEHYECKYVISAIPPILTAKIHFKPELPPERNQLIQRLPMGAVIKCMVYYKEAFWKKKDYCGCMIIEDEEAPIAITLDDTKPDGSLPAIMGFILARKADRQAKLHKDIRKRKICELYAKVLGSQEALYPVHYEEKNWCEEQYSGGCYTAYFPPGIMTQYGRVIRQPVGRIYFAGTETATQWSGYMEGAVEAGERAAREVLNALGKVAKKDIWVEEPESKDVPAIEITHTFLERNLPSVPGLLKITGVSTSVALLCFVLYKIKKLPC

[14] = target: Glycine, Strychnine-sensitive; conditions: read-out: Reference Ki; reference compound of the assay; ref PERKIN ELMER; cited from earlier work
P-gp (human MDR1) = assay: in vitro; conditions: dog, UPLC-MS/MS
Sodium, Site 2 = target: Sodium, Site 2; parameters: method as in PERKIN ELMER; conditions: reference compound of the assay; ref PERKIN ELMER; cited from earlier work
human red blood cells = assay: Haemolysis assay; assay type: cell-based
Method: Haemolysis Assay. The assay is based on the protocol detailed by. To determine the total blood haemoglobin, the CMH method was used to map a standard curve based on the absorption wavelength at 540 nm. Nine calibration standards were produced by preparing a stock solution of 5 mg/ml (standard 1) using haemoglobin standards in CMH reagent and serially diluting it to produce further standards of concentrations 2.5, 1, 0.80, 0.40, 0.20, 0.10, 0.05, and 0.025 mg/ml. 10% Triton X-100 (v/v) was prepared using distilled water to be used as the positive control. A 0.05% solution of DMSO was prepared using distilled water and used as one of the negative controls. 0.9% saline was another negative control. Pluronic samples were prepared in 0.9% saline.
A 5 ml vial of whole blood was centrifuged at 800 g for 15 minutes at room temperature. The supernatant was removed, and the […] was used to determine the plasma free haemoglobin (PFH) concentration.
200 μl x 2 of each of the calibration standards prepared were then transferred onto the 96-well plate and 200 μl x 4 of CMH reagent (control 1). […] After shaking it gently for a few minutes, the absorbance was read at 540 nm. […] 100 μl of CMH reagent was added to all these before measuring the absorbance spectrophotometrically at 540 nm. Using the calibration curve mapped earlier, the haemoglobin concentration in each of the wells was determined. […]

[15] = cited from earlier work
[16] = target: Glutamate, Kainate Site (Ionotropic); parameters: method as in PERKIN ELMER; conditions: reference compound of the assay; ref PERKIN ELMER; cited from earlier work
[17] = target: Glutamate, MK-801 Site (Ionotropic); parameters: method as in PERKIN ELMER; conditions: reference compound of the assay; ref PERKIN ELMER; cited from earlier work
[18] = target: Decarboxylase, Glutamic Acid; parameters: method as in PERKIN ELMER; conditions: reference compound of the assay; ref PERKIN ELMER; cited from earlier work
Melatonin, Non-selective = target: Melatonin, Non-selective; parameters: method as in PERKIN ELMER; conditions: reference compound of the assay; ref PERKIN ELMER; cited from earlier work
[19] = target: Imidazoline, I2 [central]; parameters: method as in PERKIN ELMER; conditions: reference compound of the assay; ref PERKIN ELMER; cited from earlier work
[20] = MDCK-MDR1, pH 7.4, Papp A2B Replicate 1, 10 µM
[21] = MDCK-MDR1, pH 7.4, Papp A2B Replicate 2, 10 µM
[22] = MDCK-MDR1, pH 7.4, Papp B2A Replicate 1, 10 µM
[23] = MDCK-MDR1, pH 7.4, Papp B2A Replicate 2, 10 µM

## C=CCc1ccccc1OCC(O)CNC(C)C (centres unmarked) [Alprenolol HCl]
[1]
  Ki: 4.55 nM

## CN1[C@@H]2CC[C@H]1C[C@@H](OC(=O)C(CO)c1ccccc1)C2 (some centres unmarked) [Atropine sulfate]
[2]
  Ki: 0.311 nM

## Apamin (CNCKAPETALCARRCQQH-NH2; disulfide 1-11, 3-15; ends not checked; UniProt P01500 28-45, looked up)
[3]
  Ki: 0.205 nM

## O=C(O)/C(=C/c1c(C(=O)O)[nH]c2cc(Cl)cc(Cl)c12)c1ccccc1 [MDL-105,519]
[4]
  Ki: 31.5 nM

## CCK-8 (sulfated)
[5]
  Ki: 0.307 nM

## CN[C@H](CC(=O)O)C(=O)O [NMDA]
[6]
  Ki: 6810 nM

## Cc1ccc(/C(=C\CN2CCCC2)c2ccccn2)cc1 [Triprolidine]
Histamine, H1
  Ki: 7.33 nM

## Angiotensin II (Human)
Angiotensin II, AT2
  Ki: 0.255 nM

## NC(=NCCC[C@H](N)C(=O)O)N[N+](=O)[O-] [NOARG (Nitro-L-Arginine)]
[7]
  Ki: 26.3 nM

## CCNC(=O)[C@H]1O[C@@H](n2cnc3c(N)ncnc32)[C@H](O)[C@@H]1O [Neca]
Adenosine, Non-selective
  Ki: 7.46 nM

## Tyr0-oCRF
[8]
  Ki: 10.7 nM

## Cc1o[nH]c(=O)c1CC(N)C(=O)O (racemic) [(+/-) AMPA HBr]
[9]
  Ki: 90.7 nM

## Clc1ccc([C@@H]2C[C@H]3CC[C@@H]2N3)cn1 (racemic) [(+/-) Epibatidine]
[10]
  Ki: 0.0912 nM

## CNC(=O)Oc1ccc2c(c1)[C@]1(C)CCN(C)[C@@H]1N2C [Eserine (Physostigmine)]
Esterase, Acetylcholine
  Ki: 385 nM

## CCOC(=O)c1ncn2c1CN(C)C(=O)c1cc(F)ccc1-2 [Ro15-1788 (Flumazenil)]
[11]
  Ki: 0.721 nM

## COc1ccc(Cl)cc1C(=O)NCCc1ccc(S(=O)(=O)NC(=O)NC2CCCCC2)cc1 [Glibenclamide]
[12]
  Ki: 0.781 nM

## c1cc2c(cc1C1CCCCC1)c1c3n2CCNC3CCC1 (centres unmarked) [Tetrindole mesylate]
[13]
  Ki: 23.4 nM

## O=C1C[C@@H]2OCC=C3CN4CC[C@]56c7ccccc7N1[C@H]5[C@H]2[C@H]3C[C@H]46 [Strychnine nitrate]
[14]
  Ki: 28.1 nM

## CC(C)NCC(O)COc1cccc2ccccc12 (centres unmarked) [propranolol]
P-gp (human MDR1); [20]
  Papp A→B at 1 h, 10 µM: 34.1 ×10⁻⁶ cm/s
P-gp (human MDR1); [21]
  Papp A→B at 1 h, 10 µM: 28 ×10⁻⁶ cm/s
P-gp (human MDR1); [22]
  Papp B→A at 1 h, 10 µM: 41.4 ×10⁻⁶ cm/s
P-gp (human MDR1); [23]
  Papp B→A at 1 h, 10 µM: 41.6 ×10⁻⁶ cm/s

## CCN1C[C@]2(COC)[C@H](O)C[C@H](OC)[C@@]34[C@@H]5C[C@@]6(O)[C@H](OC(=O)c7ccccc7)[C@@H]5[C@@](OC(C)=O)([C@@H]([C@H](OC)[C@H]23)[C@@H]14)[C@@H](O)[C@@H]6OC [Aconitine]
Sodium, Site 2
  Ki: 2290 nM

## Triton X-100 [10% Triton X-100]
Human red blood cells
  haemolysis: caused haemolysis

## c1cc2ccc3cccc4ccc(c1)c2c34 [pyrene]
[15]; F68
  log P for pyrene/Pluronics: ca. 2.5
[15]; P105
  log P for pyrene/Pluronics: ~3.5

## C=C(C)[C@H]1CN[C@H](C(=O)O)[C@H]1CC(=O)O [Kainic Acid]
[16]
  Ki: 10.8 nM

## (+)-MK-801 HMaleate
[17]
  Ki: 12.4 nM

## COc1cc2nc(N3CCN(C(=O)c4ccco4)CC3)nc(N)c2cc1OC [prazosin]
P-gp (human MDR1); [20]
  Papp A→B at 1 h, 10 µM: 2.48 ×10⁻⁶ cm/s
P-gp (human MDR1); [21]
  Papp A→B at 1 h, 10 µM: 1.96 ×10⁻⁶ cm/s
P-gp (human MDR1); [22]
  Papp B→A at 1 h, 10 µM: 69.5 ×10⁻⁶ cm/s
P-gp (human MDR1); [23]
  Papp B→A at 1 h, 10 µM: 70.7 ×10⁻⁶ cm/s

## NOCC(=O)O [AminoOxy acetic acid]
[18]
  Ki: 1170 nM

## c1ccc2oc(C3=NCCN3)cc2c1 [2-BFI]
[19]
  Ki: 0.381 nM
